Measured values taken from patent US20070082945A1, “Discodermolide compositions” (priority 2003, published 2007).

Experiments:
[1] = Storage stability of infusion concentrate vials and infusion solution; type: physicochemical
Experimental: An infusion concentrate comprising 2 mg of discodermolide is dissolved in 98-100% propylene glycol (PG) (1.0 mL) and charged to 6 mL vials. The vials are used for storage and shipment. The vials are stable for a period of at least 2 years at a temperature of 2-8° C. The vehicle is prepared in a separate 2 mL single dose vial. Each mL of solution contains 7.3 mg of sodium chloride USP, and 163 mg of ethanol (EtOH) in water for injection(saline) (16.3% ethanol in 0.9% sodium chloride solution, 2 mL fill). The storage condition is 25° C. for the vehicle. Prior to i.v. administration, 1.6 mL of the vehicle is withdrawn with a sterile disposable syringe and injected into the vial containing the discodermolide. The solution is gently shaken until a clear homogeneous solution for infusion is obtained containing 0.77 mg/mL discodermolide in 40% propylene glycol, 10% ethanol and 50% normal saline. The ratio of discodermolide concentrate to the diluent vehicle in the diluted solution is 1:1.6 v/v. The i.v. solution thus formed is stable for a period of 8 hours at room temperature.

[2] = Solubility and stability in aqueous media; type: physicochemical
[3] = Precipitation on direct i.v. infusion followed by normal saline flush; settings: direct i.v. infusion into the vein followed by a normal saline flush
Experimental: Preferably the infusion solution of the present invention is prepared by mixing the infusion concentrate with a diluent, such as 16.3% w/v ethanol in saline in a suitable container. A preferred formulation comprises 1 mL of 2 mg/mL infusion concentrate diluted with 1.6 mL of 16.3% w/v ethanol in saline to yield an infusion solution containing 0.77 mg/mL discodermolide in 40% propylene glycol, 10% ethanol and 50% normal saline. This solution is administered via i.v. infusion, or push into Y tubing containing a 0.9% normal saline drip, directly into the vein and the drug solution residue in the tubing will be flushed with normal saline. The volume of discodermolide solution given via i.v. push will vary from 0.3 mL (at the starting does of 0.2 mg or 0.13 mg/m^2) to 26 mL (for a dose of 20 mg or 11.43 mg/m^2) or 43 mL (for a dose of 33 mg or 19.2 mg/m^2).

[4] = Stability of infusion concentrates diluted 1:5 with 20/80 propylene glycol/0.9% sodium chloride, ambient conditions; type: physicochemical
Experimental: In this example, stability of discodermolide infusion concentrates diluted 1:5 with 20/80 propylene glycol/0.9% sodium chloride solution under ambient conditions is measured. Table 4 describes the amount of degradation product formed over a period of up to 24 hours. The stability is analyzed by determining formation of degradation products in each of the infusion solutions as a function of time and temperature. Each sample is analyzed by HPLC with a UV detector. The solution for infusion was prepared by diluting discodermolide concentrates, 0.6 mg/mL, 2.0 mg/mL and 3.0 mg/mL, with 20/80 propylene glycol/0.9% sodium chloride solution in a 1:5 ratio. The discodermolide concentrate solutions of 0.6 mg/mL, 2.0 mg/mL and 3.0 mg/mL yielded discodermolide solutions for infusions 0.12 mg/mL, 0.4 mg/mL and 0.6 mg/mL, respectively.

[5] = system: tubulin; settings: competition with paclitaxel; cited from earlier work
[6] = Effect of organic solvent ratio variation on solubility; type: physicochemical; settings: propylene glycol/ethanol/normal saline mixture, aqueous with cosolvent or surfactant or cyclodextrin
[7] = system: purified tubulin; settings: among the compounds known to induce polymerization; cited from earlier work
[8] = normal saline (0.9% sodium chloride)
[9] = 0.12 mg/mL solution for infusion, 0 hours
[10] = 0.12 mg/mL solution for infusion, 2 hours
[11] = 0.12 mg/mL solution for infusion, 4 hours
[12] = 0.12 mg/mL solution for infusion, 8 hours
[13] = 0.12 mg/mL solution for infusion, 24 hours
[14] = 0.4 mg/mL solution for infusion, 0 hours
[15] = 0.4 mg/mL solution for infusion, 2 hours
[16] = 0.4 mg/mL solution for infusion, 4 hours
[17] = 0.4 mg/mL solution for infusion, 8 hours
[18] = 0.4 mg/mL solution for infusion, 24 hours
[19] = 0.6 mg/mL solution for infusion, 0 hours
[20] = 0.6 mg/mL solution for infusion, 2 hours
[21] = 0.6 mg/mL solution for infusion, 4 hours
[22] = 0.6 mg/mL solution for infusion, 8 hours
[23] = 0.6 mg/mL solution for infusion, 24 hours

## C=C/C=C\C(C)[C@H](OC(N)=O)[C@@H](C)[C@H](O)[C@@H](C)C/C(C)=C\C(C)C(O)[C@@H](C)/C=C\[C@@H](O)C[C@@H]1OC(=O)[C@H](C)C(O)C1C (single isomer, unassigned; (+)) [discodermolide, (+)-Discodermolide]
[1]; 0.77 mg/mL in 40% propylene glycol, 10% ethanol, 50% normal saline, room temperature
  Period of stability of i.v. solution: 8 h
[1]; 2 mg discodermolide in 1.0 mL 98-100% propylene glycol, 2-8° C.
  Period of stability of infusion concentrate vials: at least 2 years
[2]
  Solubility in aqueous solvents and aqueous-organic mixtures: poor solubility
  Stability in aqueous solvents and aqueous-organic mixtures: poor stability
[2]; [8]
  Degradation on dilution of infusion concentrate: degrades to the hydrolysis product
  Precipitation on dilution of infusion concentrate: precipitation of the discodermolide is observed
[2]; water
  Solubility in water: practically insoluble
[3]
  Precipitation on administration: will not cause any precipitation
[4]; [9]
  Assay: 105.6 % label claim
  Total Impurities: 0.17 % area
[4]; [10]
  Assay: 105.6 % label claim
  Total Impurities: 0.17 % area
[4]; [11]
  Assay: 106.4 % label claim
  Total Impurities: 0.21 % area
[4]; [12]
  Assay: 107.0 % label claim
  Total Impurities: 0.25 % area
[4]; [13]
  Assay: 104.6 % label claim
  Total Impurities: 0.33 % area
[4]; [14]
  Assay: 102.3 % label claim
  Total Impurities: 0.23 % area
[4]; [15]
  Assay: 101.8 % label claim
  Total Impurities: 0.97 % area
[4]; [16]
  Assay: 102.2 % label claim
  Total Impurities: 1.84 % area
[4]; [17]
  Assay: 102.0 % label claim
  Total Impurities: 3.35 % area
[4]; [18]
  Assay: 94.8 % label claim
  Total Impurities: 6.21 % area
[4]; [19]
  Assay: 103.0 % label claim
  Total Impurities: 0.28 % area
[4]; [20]
  Assay: 100.0 % label claim
  Total Impurities: 1.49 % area
[4]; [21]
  Assay: 99.4 % label claim
  Total Impurities: 2.19 % area
[4]; [22]
  Assay: 98.8 % label claim
  Total Impurities: 3.68 % area
[4]; [23]
  Assay: 89.9 % label claim
  Total Impurities: 8.90 % area
[5]
  Binding to tubulin: binds to tubulin competitively with paclitaxel
[6]; PG 38 / EtOH 9 / normal saline 53 (%, w/v)
  solubility: 640 µg/mL
[6]; PG 38 / EtOH 9.5 / normal saline 52.5 (%, w/v)
  solubility: 700 µg/mL
[6]; PG 40 / EtOH 8 / normal saline 52 (%, w/v)
  solubility: 620 µg/mL
[6]; PG 40 / EtOH 9 / normal saline 51 (%, w/v)
  solubility: 770 µg/mL
[6]; PG 40 / EtOH 9.6 / normal saline 50.4 (%, w/v)
  solubility: 870 µg/mL
[6]; PG 40 / EtOH 10 / normal saline 50 (%, w/v)
  solubility: 960 µg/mL
[7]
  Potency to induce polymerization of purified tubulin: the most potent
